One assay has as its target T1, DRAK1(h) (Homo sapiens, UniProt Q9UEE5).
T1 construct: purchased Eurofins (KinaseProfiler)
T1 sequence (Q9UEE5 1-414): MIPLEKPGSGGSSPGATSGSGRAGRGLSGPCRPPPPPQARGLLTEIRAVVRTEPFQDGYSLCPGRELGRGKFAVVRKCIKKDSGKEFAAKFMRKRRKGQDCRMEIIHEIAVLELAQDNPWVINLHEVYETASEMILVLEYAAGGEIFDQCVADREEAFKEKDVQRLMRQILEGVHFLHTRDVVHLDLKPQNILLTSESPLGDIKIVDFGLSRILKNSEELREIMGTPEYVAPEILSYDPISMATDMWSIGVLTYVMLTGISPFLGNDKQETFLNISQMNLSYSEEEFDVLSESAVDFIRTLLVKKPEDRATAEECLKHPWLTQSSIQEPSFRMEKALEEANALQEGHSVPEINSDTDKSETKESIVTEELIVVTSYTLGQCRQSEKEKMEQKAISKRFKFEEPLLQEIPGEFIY
Kind of assay: Eurofins kinase panel. In kind it is biochemical. The following applies: read-out: Inhibition rate (%).

In another assay the target is T2, cKit(h) (Homo sapiens, UniProt P10721).
T2 construct: purchased Eurofins (KinaseProfiler)
T2 sequence (P10721 26-976): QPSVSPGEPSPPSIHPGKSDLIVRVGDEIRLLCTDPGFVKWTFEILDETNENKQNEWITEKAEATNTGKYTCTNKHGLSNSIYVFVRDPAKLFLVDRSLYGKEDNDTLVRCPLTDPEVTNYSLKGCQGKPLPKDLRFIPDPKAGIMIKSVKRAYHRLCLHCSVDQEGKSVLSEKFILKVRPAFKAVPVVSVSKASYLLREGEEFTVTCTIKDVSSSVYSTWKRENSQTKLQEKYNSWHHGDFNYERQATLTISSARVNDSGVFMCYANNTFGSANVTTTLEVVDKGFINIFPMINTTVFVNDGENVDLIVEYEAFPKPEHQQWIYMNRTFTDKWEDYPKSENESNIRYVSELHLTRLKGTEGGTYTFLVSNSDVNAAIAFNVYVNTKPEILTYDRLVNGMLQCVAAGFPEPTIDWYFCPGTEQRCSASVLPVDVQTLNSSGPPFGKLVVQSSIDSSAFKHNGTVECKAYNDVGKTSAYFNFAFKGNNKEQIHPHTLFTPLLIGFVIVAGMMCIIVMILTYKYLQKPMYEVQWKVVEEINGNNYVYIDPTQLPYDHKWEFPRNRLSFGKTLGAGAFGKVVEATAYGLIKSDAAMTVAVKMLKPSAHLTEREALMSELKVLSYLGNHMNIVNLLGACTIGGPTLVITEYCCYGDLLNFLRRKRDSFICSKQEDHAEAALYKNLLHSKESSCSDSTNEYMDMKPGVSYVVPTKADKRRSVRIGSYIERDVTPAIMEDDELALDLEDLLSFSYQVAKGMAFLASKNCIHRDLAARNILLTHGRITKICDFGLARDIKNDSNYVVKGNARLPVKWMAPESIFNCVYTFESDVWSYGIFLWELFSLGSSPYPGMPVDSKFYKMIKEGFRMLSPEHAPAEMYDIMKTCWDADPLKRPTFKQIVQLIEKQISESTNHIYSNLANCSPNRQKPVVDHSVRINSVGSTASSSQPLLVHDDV
The assay is described as follows: Eurofins kinase panel. In kind it is biochemical. The following applies: read-out: Inhibition rate (%).

Another assay addresses T3, Aurora-A(h) (Homo sapiens, UniProt O14965).
T3 construct: purchased Eurofins (KinaseProfiler)
T3 sequence (O14965 1-403): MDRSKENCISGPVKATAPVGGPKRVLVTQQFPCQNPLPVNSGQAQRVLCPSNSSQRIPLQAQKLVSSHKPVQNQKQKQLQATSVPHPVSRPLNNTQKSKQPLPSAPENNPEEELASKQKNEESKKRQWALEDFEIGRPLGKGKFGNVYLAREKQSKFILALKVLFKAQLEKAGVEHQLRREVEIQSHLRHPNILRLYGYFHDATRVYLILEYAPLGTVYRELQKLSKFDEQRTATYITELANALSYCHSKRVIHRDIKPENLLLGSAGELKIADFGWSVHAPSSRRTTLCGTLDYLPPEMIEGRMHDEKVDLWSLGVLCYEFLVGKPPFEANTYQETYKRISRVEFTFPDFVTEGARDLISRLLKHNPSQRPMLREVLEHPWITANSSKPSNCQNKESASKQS
Kind of assay: Eurofins kinase panel. In kind it is biochemical. The following applies: read-out: Inhibition rate (%).

The next assay relates to PBMC (CSF-1). The assay is described as follows: Macrophage survival (CCK-8). The format is cell-based. The note with it: Homo sapiens, 168 h, 7 days, mean ± SD. The method, then: Murine bone marrow and human monocytes were stimulated with CSF-1 for 7 days together with the indicated inhibitor, and cell viability was evaluated by the CCK-8 assay. The IC50 values are shown as the mean ± SD (nM) from two independent tests. B-E, To test the impact of 3D185 on the polarization of CSF-1-induced macrophages, murine bone marrow cells and human monocytes were induced to mature into macrophages with CSF-1 for 7 days and then stimulated with CSF-1, IL-4 and IL-13 for an additional 48 h. The expression of the markers MHC-II (b), CD86 (c), and CD206 (d) on induced murine macrophages and CD206 expression on induced human macrophages (e) were determined by flow cytometry, and the mean fluorescence intensity (MFI) was analyzed with FlowJo. Representative data from two independent experiments. f Murine bone marrow cells (left panel) and human monocytes (right panel) were induced to mature into macrophages with CSF-1 for 7 days and then stimulated with CSF-1, IL-4 and IL-13 and treated with vehicle or the indicated inhibitor for an additional 48 h. Then, all cells were collected to count viable cells by staining with trypan blue
Murine bone marrow-derived macrophages (BMDMs) and PBMCs were used for cell viability studies. […] Cell viability was measured using the CCK-8 assay. For IL-4/IL-13-induced macrophage survival analysis, viable cells were counted by trypan blue exclusion.

The next assay concerns the target T4, Plk3(h) (Homo sapiens, UniProt Q9H4B4).
T4 construct: purchased Eurofins (KinaseProfiler)
Kind of assay: Eurofins kinase panel. The format is biochemical. The following applies: read-out: Inhibition rate (%).

The next assay deals with T5, ALK2(h) (Homo sapiens, UniProt Q04771).
T5 construct: purchased Eurofins (KinaseProfiler)
T5 sequence (Q04771 21-509): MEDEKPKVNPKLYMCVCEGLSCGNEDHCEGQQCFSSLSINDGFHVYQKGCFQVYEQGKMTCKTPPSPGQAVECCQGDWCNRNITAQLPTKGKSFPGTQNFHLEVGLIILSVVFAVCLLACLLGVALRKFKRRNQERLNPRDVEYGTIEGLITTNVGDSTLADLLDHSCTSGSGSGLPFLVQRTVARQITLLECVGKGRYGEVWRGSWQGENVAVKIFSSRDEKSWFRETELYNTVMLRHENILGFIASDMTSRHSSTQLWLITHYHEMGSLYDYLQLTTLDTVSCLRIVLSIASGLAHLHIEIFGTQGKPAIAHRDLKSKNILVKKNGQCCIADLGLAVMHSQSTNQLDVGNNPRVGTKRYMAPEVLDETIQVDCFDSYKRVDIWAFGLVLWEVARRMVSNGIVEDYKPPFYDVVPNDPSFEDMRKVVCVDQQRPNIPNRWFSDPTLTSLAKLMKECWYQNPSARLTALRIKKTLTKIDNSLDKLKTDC
Kind of assay: Eurofins kinase panel. The format is biochemical. The note with it: read-out: Inhibition rate (%).

For another assay, the target named is T6, Mnk2(h) (Homo sapiens, UniProt Q9HBH9).
T6 construct: purchased Eurofins (KinaseProfiler)
T6 sequence (Q9HBH9 whole entry): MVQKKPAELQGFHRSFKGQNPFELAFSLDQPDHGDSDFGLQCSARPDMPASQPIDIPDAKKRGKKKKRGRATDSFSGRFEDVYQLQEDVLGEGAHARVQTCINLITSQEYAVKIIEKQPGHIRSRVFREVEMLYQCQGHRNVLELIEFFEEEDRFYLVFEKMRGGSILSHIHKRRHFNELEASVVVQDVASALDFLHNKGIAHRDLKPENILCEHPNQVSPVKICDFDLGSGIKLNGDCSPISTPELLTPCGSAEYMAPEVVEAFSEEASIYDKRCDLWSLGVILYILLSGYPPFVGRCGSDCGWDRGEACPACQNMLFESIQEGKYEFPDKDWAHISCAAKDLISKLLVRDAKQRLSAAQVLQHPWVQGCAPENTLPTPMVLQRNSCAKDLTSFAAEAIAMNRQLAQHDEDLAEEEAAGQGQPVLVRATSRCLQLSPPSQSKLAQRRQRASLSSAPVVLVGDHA
The assay is described as follows: Eurofins kinase panel. The format is biochemical. The note with it: read-out: Inhibition rate (%).

Assay [1] deals with ERK phosphorylation in NCI-H1581 tumors. Kind of assay: Pharmacodynamic study, intratumoral p-ERK. The note with it: 6 h after single oral dose of 12.5, 25 or 50 mg/kg.

T4 sequence (Q9H4B4 whole entry): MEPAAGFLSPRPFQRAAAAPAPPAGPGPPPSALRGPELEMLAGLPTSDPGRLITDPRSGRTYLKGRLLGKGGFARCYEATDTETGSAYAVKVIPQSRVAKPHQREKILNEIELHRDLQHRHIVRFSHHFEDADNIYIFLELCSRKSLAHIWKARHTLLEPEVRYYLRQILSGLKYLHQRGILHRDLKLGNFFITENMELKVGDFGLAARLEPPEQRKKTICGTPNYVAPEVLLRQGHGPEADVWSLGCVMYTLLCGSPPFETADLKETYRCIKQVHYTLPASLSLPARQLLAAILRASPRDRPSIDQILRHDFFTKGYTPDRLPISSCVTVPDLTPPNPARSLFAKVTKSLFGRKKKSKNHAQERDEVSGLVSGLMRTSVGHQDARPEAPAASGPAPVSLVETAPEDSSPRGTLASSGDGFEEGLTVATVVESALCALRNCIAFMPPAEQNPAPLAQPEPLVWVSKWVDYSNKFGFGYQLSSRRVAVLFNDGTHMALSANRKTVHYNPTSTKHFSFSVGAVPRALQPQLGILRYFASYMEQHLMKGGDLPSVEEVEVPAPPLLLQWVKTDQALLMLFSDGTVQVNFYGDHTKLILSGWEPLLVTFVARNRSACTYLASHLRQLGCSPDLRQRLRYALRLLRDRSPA

As usually defined, the inhibition is the change of the read-out against control, counted positive when it falls. The term IC50 denotes the concentration that gives 50% inhibition. The low end stands for higher potency, the high end for lower potency. As to `COc1cc(OC)c(Cl)c(-c2ccc3c(NC(=O)c4ccc(N5CCNC(C)(C)C5)cc4)n[nH]c3n2)c1Cl` [3D185], the inhibition at 0.01 µM was -4% on DRAK1(h) (10 nM); 19% on cKit(h) (10 nM); 4% on Aurora-A(h) (10 nM); 5% on Plk3(h) (10 nM); -10% on ALK2(h) (10 nM); -2% at Mnk2(h) (10 nM). Also, the inhibition at 0.1 µM on DRAK1(h) (100 nM) was 7%; on cKit(h) (100 nM), 35%; on Aurora-A(h) (100 nM), 5%; on Plk3(h) (100 nM) it was 1%; at ALK2(h) (100 nM), -15%; on Mnk2(h) (100 nM), -10%. The inhibition at 1 µM on DRAK1(h) (1000 nM) is 14%; at cKit(h) (1000 nM), 76%; at Aurora-A(h) (1000 nM), 3%; on Plk3(h) (1000 nM), 6%; on ALK2(h) (1000 nM), -4%; on Mnk2(h) (1000 nM) it was -9%. The molecule also returned an IC50 in the assay on PBMC (CSF-1) of 118 nM. For the same molecule, the “intratumoral ERK phosphorylation” value in assay [1] is “nearly complete inhibition of ERK phosphorylation”.

Source of the values: PMC6704710, “Preclinical evaluation of 3D185, a novel potent inhibitor of FGFR1/2/3 and CSF-1R, in FGFR-dependent and macrophage-dominant cancer models” (Journal of Experimental & Clinical Cancer Research : CR, 2019).
